{"source": "patent US10023839B2", "about": "“Anti-tumour vaccine derived from normal cells” (Cytovac A/S, priority 2007, dated 2018)", "tested_on": "cancer/testis antigens (MAGE-A1, -A3, -A4, -A6, -A10, -A12, NY-ESO-1, GAGE-3-7, BORIS) in proliferating lymphocytes", "assay": "RT-PCR analysis of cancer/testis antigen expression in 5-Aza-CdR-treated proliferating lymphocytes"}
{"smiles": "Nc1ncn([C@H]2C[C@H](O)[C@@H](CO)O2)c(=O)n1", "note": "[Culture 5-Aza-CdR, 5-Aza-2′-deoxycytidine]", "values": [{"measurement": "induction of CTA expression (RT-PCR)", "setting": "10 μM 5-aza-2′-deoxycytidine, 150 IU/ml IL-2, 3 days, lymphocytes expanded with autologous mature dendritic cells", "value": "all the investigated antigens are present in the induced lymphocytes"}, {"measurement": "CTA expression, cultures from log phase of growth (day 8) versus plateau (day 10)", "setting": "10 μM 5-aza-2′-deoxycytidine, 3 days", "value": "higher expression in cultures taken from log phase of growth"}, {"measurement": "most easily inducible CTA", "setting": "preliminary experiments on kinetics and concentration dependence (not shown)", "value": "MAGE-A1, MAGE-A4 and MAGE-A12"}]}
